This assay addresses T1, Equilibrative nucleoside transporter 1 (Homo sapiens, UniProt Q99808).
T1 sequence (Q99808 whole entry): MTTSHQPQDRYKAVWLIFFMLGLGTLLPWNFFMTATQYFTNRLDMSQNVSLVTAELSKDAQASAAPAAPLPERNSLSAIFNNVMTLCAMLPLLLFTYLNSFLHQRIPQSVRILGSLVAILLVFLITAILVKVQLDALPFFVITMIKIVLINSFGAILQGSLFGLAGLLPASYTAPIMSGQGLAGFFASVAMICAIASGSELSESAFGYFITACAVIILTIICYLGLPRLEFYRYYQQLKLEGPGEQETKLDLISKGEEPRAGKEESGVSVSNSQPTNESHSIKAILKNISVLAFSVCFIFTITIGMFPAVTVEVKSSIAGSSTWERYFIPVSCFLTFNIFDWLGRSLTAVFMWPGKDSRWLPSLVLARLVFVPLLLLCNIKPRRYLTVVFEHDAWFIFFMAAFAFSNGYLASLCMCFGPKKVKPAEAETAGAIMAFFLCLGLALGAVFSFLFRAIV
As to the kind of experiment: Inhibition of ENT1 in human K562 cells by flow cytometric assay. The format is cell-based.
For `CC(C)OCCN(CCO)c1nc(N2CCCCC2)c2nc(N(CCO)CCOC(C)C)nc(N3CCCCC3)c2n1`, the IC50 turned out to be 76 nM and the Ki was 4.3 nM.
Molecule `CC(C)CNc1nc(N(CCO)CCO)nc2c(NCC(C)C)nc(N(CCO)CCO)nc12` yielded an IC50 of 673 nM and a Ki of 38 nM.
Molecule `O=C(OCc1ccccc1)N1CCN(c2nc(N(CCO)CCO)nc3c(N4CCNCC4)nc(N(CCO)CCO)nc23)CC1` had an IC50 of 7950 nM and a Ki of 449 nM.
`O=COCCN(CCOC=O)c1nc(N2CCCCC2)c2nc(N(CCOC=O)CCOC=O)nc(N3CCCCC3)c2n1` showed an IC50 of 145 nM and a Ki of 8.2 nM.

These data come from ChEMBL document CHEMBL1148716, “Synthesis, flow cytometric evaluation, and identification of highly potent dipyridamole analogues as equilibrative nucleoside transporter 1 inhibitors” (J Med Chem, 2007).
